Earlier results as cited in patent publication US20250295592A1, “Method for Controlled Release Oral Drug Delivery” (priority 2024, published 2025).
Read-outs that look alike come from different tables or passages of the source.

[1] = human stomach, acidic gastric contents

C=CCC1(C(C)CCC)C(=O)NC(=O)NC1=O (stereo not shown) [secobarbital]
absorption from the stomach [1]: readily absorbed

Cc1cc(=O)n(-c2ccccc2)n1C [antipyrine]
absorption from the stomach (in vivo): readily absorbed

CCCC(C)C1(CC)C(=O)NC(=S)NC1=O (stereo not shown) [thiopental]
absorption from the stomach [1]: readily absorbed

CC(=O)Oc1ccccc1C(=O)O [aspirin]
absorption from the stomach [1]: readily absorbed
